{"source": "patent US8012751B2", "about": "“Differentiation of pluripotent embryonic stem cells” (Wisconsin Alumni Research Foundation, priority 2005, dated 2011)", "key": {"[1]": {"system": "PARP-1 activity in human ES cells", "experiment": "in vitro PARP activity assay", "type": "cell-based", "conditions": "human ES cells treated with DEVD.fmk; p<0.01", "description": "(§1) Apoptotic cells were detected using the Annexin-V binding kit (ApoAlert, Clontech) or the TUNEL assay kit (DeadEnd, Promega). PARP activity was determined according to a protocol published by Bakondi and others (Bakondi et al., 2002). In order to detect activated caspase-3 or cleaved p85 PARP-1, cells were fixed in CytoFix (BD), permeablized in CytoPerm, and incubated at 1 μg/ml of anti-active caspase-3 antibody (Cellsignalling) or with 1 μg/ml anti-p85 PARP-1 (Promega) overnight at 4° C. The cells were then washed with CytoPern and incubated with secondary anti-rabbit FITC conjugated antibodies (1:200 dilution) for 60 minutes at room temperature. Mouse embryos were fixed in methanol:DMSO (4:1) (Sigma) overnight at 4° C., re-hydrated in 50% methanol, and then incubated with the primary antibodies (anti-p85 PARP-1 or anti-active caspase-3) in PBS with 2% nonfat instant skim milk and 0.5% Triton-X 100 with gentle shaking overnight at 4° C. Embryos were washed 6 times for 5 minutes at room temperature in PBS with 2% nonfat instant skim milk and 0.5% Triton-X 100 with gentle shaking and incubated in the same way with the secondary fluorescent antibody. Cells and embryos were visualized using a confocal laserscan microscope (Leica) or flow cytometry.\nHuman ES cells were plated out as small colonies on matrigel, mouse ES cells on gelatin. […]"}, "[2]": {"system": "caspase-3-like activity in ES cells", "experiment": "in vitro caspase-3 cell lysate assay", "type": "biochemical, human and mouse", "conditions": "treatment with DEVD.fmk", "source_text": "Activation of caspase-3 is widely considered a marker of the late stages of programmed cell death. In vivo, most of the caspase-3-like enzymatic activity is attributed to caspase-3 and -7. Applicants have therefore assayed caspase-3-like activity in undifferentiated human and mouse ES cell lines using an in vitro cell lysate assay (FIG. 1B, left). […] To further characterize the elevation of caspase-3-like activity in individual ES cells, applicants performed flow cytometry using an antibody specifically recognizing the activated form of caspase-3 (FIG. 1B, right). […] In ES cells, staining for activated caspase-3 was concentrated in the nucleus, with reduced staining in the cytosol (FIG. 1C). In intact embryos, moderate immunostaining of activated caspase-3 was present in all cells of the compacted morula, and in the ICM, but was largely absent in the trophectoderm (FIG. 1D)."}, "human ES cells [3]": {"system": "human ES cells", "experiment": "Oct4 staining (flow cytometry / immunocytochemistry) of differentiation", "type": "cell-based", "description": "(§2) H1 human ES cells (WiCell) were cultured as previously described and incorporated by reference herein (Amit et al., 2000). Human ES cells were cultured under feeder-free conditions on culture flasks that were pre-coated with matrigel™ (Becton Dickinson Labware, Bedford, MA), using medium conditioned overnight on dense murine embryonic fibroblasts (MEFs) (Xu et al., 2001a). D3 mouse ES cells (ATCC) were cultured under feeder-free conditions in mouse ES cell medium, consisting of 85% Knock-Out DMEM supplemented with 15% Gibco KNOCKOUT Serum Replacement, 2.5 mM glutamine, 0.1 mM beta-mercaptoethanol (Sigma), and 1000 U/l LIF (Esgro) on gelatin-coated plates. Murine and human fibroblasts and the 293T cell lines were cultivated in DMEM +10% Fetal bovine serum (FBS) and 1% non essential amino acids.\n(§3) Cells were treated with trypsin/EDTA and washed with PBS (both reagents are available through Invitrogen Corp.) Dead cells were excluded from analysis by forward- and side-scatter gating. Eighteen samples were analyzed using a FACScan (Becton Dickinson) flow cytometer and Cellquest software (Becton Dickinson). A minimum of 50,000 events were acquired for each sample. For Oct4 expression studies cells were stained for Oct4 using monoclonal Oct4 antibody (1 μl/10^6 cells, available through Santa Cruz). Cells were analyzed by flow cytometry analysis in a fluorescence activated cell sorter. […]"}, "human ES cells [4]": {"system": "human ES cells", "experiment": "cell proliferation assay (MTS test)", "type": "cell-based", "description": "Human ES cells were grown for the indicated time in 96-wells on Matrigel and a MTS test (CellTiter 96, Promega) was performed according to manufacturers′ instructions.\n(§4) Human ES cells were plated out as small colonies on matrigel, mouse ES cells on gelatin. DEVD.fmk was added twice a day and half of the ES cell medium was changed daily. As a control, the same volume of DEVD.fmk solvent (DMSO) was added and no significant effect on the number of undifferentiated cells was observed. Recombinant TAT-caspase-3rev was added 4 hours after application of caspase blocker and equal volumes of TAT protein served as controls. Mouse embryos were treated once in the 50 μl microdrop with the given concentration of DEVD.fmk or post-incubation 4 hours later with recombinant TAT-caspase-3rev."}, "[5]": {"system": "p85 fragment of PARP-1 in human ES cells", "experiment": "Western immunoblotting for cleaved p85 PARP-1 fragment", "type": "cell-based", "conditions": "human ES cells treated with DEVD.fmk", "description": "Cell lysates were collected from H1 Human ES cells grown on mouse embryonic fibroblasts, D3 Mouse ES cells, Human Foreskin Fibroblasts (HF), 19 MEFs, and apoptotic MEFs induced with 25 μl/ml of 3% H2O2. Cytosolic and mitochondrial lysates were isolated using the ApoAlert Cell Fractionation Kit (Clontech, Palo Alto, Calif.) and whole-cell lysates were isolated using M-PER Mammalian Protein Extraction Reagent (Pierce, Rockford, Ill.) with 1:1000 dilution of Protease Inhibitor Cocktail (Sigma) and Pefablock SC (final concentration 0.2 μg/ml)(Sigma). Lysates were run on SDS-PAGE gels, transferred to Trans-Blot Transfer Medium (Bio-Rad, Hercules, Calif.) and peroxidase-conjugated secondary antibodies were detected using Supersignal West Pico Chemiluminscent Substrate (Pierce). Cytochrome C was detected with 1:100 dilution of Cytochrome C Antibody (Clontech) and 1:2000 Goat Anti-Rabbit IgG (H+L) (Caltag Laboratories, Burlingame, Calif). COX4 was detected with dilutions of 1:1000 COX4 Antibody (Clontech) and 1:1000 Anti-mouse IgG (g)-Peroxidase (Roche, Basel, Switzerland). PARP was detected with dilutions of 1:400 anti-p85 PARP (rabbit polyclonal IgG) (Promega) and 1:5000 goat Anti-Rabbit IgG (H+L) (Caltag Laboratories).\n(§5) Human ES cells were plated out as small colonies on matrigel, mouse ES cells on gelatin. DEVD.fmk was added twice a day and half of the ES cell medium was changed daily. […]"}, "mouse embryos": {"system": "mouse embryos", "experiment": "embryo culture outgrowth experiments", "conditions": "treated embryos n=34", "source_text": "(§6) Three to nine-week-old female B6C3F1 mice (Charles Rivers) were superovulated with a single 10 IU intraperitoneal injection of Pregnant Mare's Serum Gonadotrophin (Gestyl, Diosynth B.V.—OSS). Forty-eight hours later, ovulation was triggered with a single 10 IU intraperitoneal injection of human Chorionic Gonadotrophin (hCG, Novarel/Ferring) and the female mice were mated with male BDF1 mice (Charles Rivers) of proven fertility. Two-cell stage embryos were flushed from the oviducts of the female mice 38 to 40 hours after the hCG injection using modified-Human Tubal Fluid medium (m-HTF, Irvine Scientific) supplemented with 0.5 mg/mL polyvinyl alcohol (PVA, Sigma). The resulting embryos were washed and cultured in the same medium. Groups of 10-15 embryos were cultured at 37° C. with 5% CO2/95% air in 50 μL drops of m-HTF medium covered with mineral oil (Ovoil, Vitrolife). In the outgrowth experiments, the zona pellucida was digested with pronase and embryos were plated out on gelatin in ES cell derivation medium with 1000 U/mL LIF.\nas §5, with “daily. As a control, the same volume of DEVD.fmk solvent (DMSO) was added and no significant effect on the number of undifferentiated cells was observed.” for “daily.”"}, "human ES cells [6]": {"system": "human ES cells", "experiment": "microarray gene expression analysis of DEVD.fmk treated cells", "type": "cell-based", "source_text": "Since ES cells differentiate relatively uniformly from their undifferentiated state into the spindle-shaped cells, we performed a microarray analysis of the differentiated human cells treated with DEVD.fmk. […] In both zebrafish and Xenopus, dickkopf genes have been associated with the development of mesoderm and endoderm. The identity of the differentiated cell type is most likely a common precursor of mesoderm and endoderm (“mesendoderm”)."}, "human ES cells [7]": {"system": "human ES cells", "experiment": "morphology and time of differentiation of treated ES cells", "type": "cell-based", "description": "as §2\nas §4, with “Mouse embryos were treated once in the 50 μl microdrop with the given concentration of DEVD.fmk or post-incubation 4 hours later with recombinant TAT-caspase-3rev.” left out"}, "mouse morulas": {"system": "mouse morulas", "experiment": "development of pre-implantation embryos to expanded blastocysts", "source_text": "as §6\nas §5, with “daily. As a control, the same volume of DEVD.fmk solvent (DMSO) was added and no significant effect on the number of undifferentiated cells was observed.” for “daily.”"}, "human ES cells [8]": {"system": "human ES cells", "experiment": "Annexin-V EGFP binding (programmed cell death)", "type": "cell-based", "conditions": "p=0.0011", "description": "as §1, with “Embryos were washed 6 times for 5 minutes at room temperature in PBS with 2% nonfat instant skim milk and 0.5% Triton-X 100 with gentle shaking and incubated in the same way with the secondary fluorescent antibody. Cells and embryos were visualized using a confocal laserscan microscope (Leica) or flow cytometry.” left out\nas §3, with “A minimum of 50,000 events were acquired for each sample. For Oct4 expression studies cells were stained for Oct4 using monoclonal Oct4 antibody (1 μl/10^6 cells, available through Santa Cruz).” left out"}, "[9]": {"conditions": "versus undifferentiated ES cells"}}, "data": [{"substance": "N-benzyloxycarbonyl-Asp-Glu-Val-Asp fluoromethylketone (DEVD; HELM PEPTIDE1{[O=C(OCc1ccccc1)[*:2]].D.E.V.D.[FC[*:1]]}$$$$V2.0; SMILES CC(C)[C@H](NC(=O)[C@H](CCC(=O)O)NC(=O)[C@H](CC(=O)O)NC(=O)OCc1ccccc1)C(=O)N[C@@H](CC(=O)O)C(=O)CF) [DEVD.fmk]", "values": [{"measurement": "PARP-1 activity", "setting": "[1]", "value": "upregulated"}, {"measurement": "caspase-3-like activity", "setting": "[2]", "value": "reduced this activity"}, {"measurement": "induction of differentiation as measured by Oct4 staining", "setting": "human ES cells [3]; human ES cells, p<0.01", "value": "dose dependent induction of differentiation"}, {"measurement": "Oct4 staining by immunocytochemistry", "setting": "human ES cells [3]; spindle-shaped cells after DEVD.fmk, data not shown", "value": "failed to stain for Oct4"}, {"measurement": "decrease in proliferation of human ES cells", "setting": "human ES cells [4]; after 3 days", "value": "no longer observed"}, {"measurement": "proliferation of human ES cells", "setting": "human ES cells [4]; first 48 hours after application", "value": "small decrease in proliferation"}, {"measurement": "p85 PARP-1 fragment in Western blot analysis", "setting": "[5]", "value": "disappearance"}, {"measurement": "outgrowth: rind and core structures of extraembryonic endoderm overlying epiblast", "setting": "mouse embryos", "value": "always failed to produce prominent rind and core structures"}, {"measurement": "up-regulation of DKK4", "setting": "human ES cells [6]; microarray, FIG. 7", "value": "over 170 fold"}, {"measurement": "upregulation of BMP4", "setting": "human ES cells [6]; [9]", "value": 45, "unit": "X"}, {"measurement": "upregulation of DKK4", "setting": "human ES cells [6]; [9]", "value": 137, "unit": "X"}, {"measurement": "upregulation of GATA-3", "setting": "human ES cells [6]; [9]", "value": 9, "unit": "X"}, {"measurement": "upregulation of WNT3", "setting": "human ES cells [6]; [9]", "value": 3, "unit": "X"}, {"measurement": "upregulation of WNT5A", "setting": "human ES cells [6]; [9]", "value": 5, "unit": "X"}, {"measurement": "upregulation of brachyury variant A", "setting": "human ES cells [6]; [9]", "value": 73, "unit": "X"}, {"measurement": "time to differentiate into morphologically uniform mesendoderm cells", "setting": "human ES cells [7]; human ES cells incubated with caspase inhibitor", "value": "2-3 days"}, {"measurement": "cell morphology", "setting": "human ES cells [7]; human ES cells treated with DEVD.fmk", "value": "differentiated to a spindle shape cell with a much smaller nuclear-cytoplasmic ratio"}, {"measurement": "development to expanded blastocysts", "setting": "mouse morulas; 200 μM DEVD.fmk", "value": "completely inhibiting development to expanded blastocysts"}, {"measurement": "development of blastocysts", "setting": "mouse morulas; added to E2.0, E2.5, E3.0 mouse morulas, dose-dependent", "value": "inhibited the development of blastocysts"}, {"measurement": "rate of programmed cell death as measured by Annexin-V EGFP staining", "setting": "human ES cells [8]", "value": "dose-dependent reduction"}]}]}
